Experimental findings from ChEMBL document CHEMBL1201862, “PubChem BioAssay data set” (2004) are described below.

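Each compound was tested at five concentrations against cells in 96-well plates for 48 hours. Abbreviation: GI50, concentration required for 50% inhibition of growth.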 Activity calls are given as the source filed them. Cut-off read from the data, not from the text of the source: active = GI50 up to about 1.1 µM and inactive = higher.

Test systems include 786-0; UO-31; UACC-62; CCRF-CEM; OVCAR-8; LOX IMVI; Malme-3M; HOP-92; M14; COLO 205; NCI-H226; TK-10; SF-268; OVCAR-3; HOP-62; NCI-H23; EKVX; ACHN.
Holding throughout (test): NCI anticancer screen, dose series, 48 h

As for `CC(C)=CCCC(C)[C@H]1CC(O)C2(C)C3=CCC4C(C)(C)[C@@H](O)CC[C@]4(C)C3=CC[C@]12C` (stereo partly specified), the GI50 is 1.55 µM (inactive) in the experiment with 786-0; 14.3 µM (inactive) in the experiment on UO-31; 4.23 µM (inactive) with UACC-62; 5.25 µM (inactive) in the experiment with CCRF-CEM; 1.8 µM (inactive) in the experiment with OVCAR-8; 0.0902 µM (active) in the experiment on LOX IMVI. For the same molecule, the GI50 with Malme-3M is 13.5 µM (inactive); in the experiment with HOP-92, 3.27 µM (inactive); with M14 it was 3.27 µM (inactive); with COLO 205, 4.93 µM (inactive); with NCI-H226, 3.74 µM (inactive); in the experiment with TK-10 it was 16.7 µM (inactive). Also, the GI50 with SF-268 was 6.01 µM (inactive); with OVCAR-3 it was 3.2 µM (inactive); with HOP-62 it was 5.83 µM (inactive); with NCI-H23, 3.72 µM (inactive); in the experiment with EKVX, 26 µM (inactive).

Regarding `CC(=O)OC12c3ccccc3C1CCCC21OCCCO1` (stereo unspecified), the GI50 in the experiment with 786-0, in the experiment with UO-31, with UACC-62, with CCRF-CEM, in the experiment with OVCAR-8 and with LOX IMVI was > 100 µM (inactive) each time. Besides, the GI50 in the experiment with Malme-3M, in the experiment with ACHN, in the experiment with M14, with COLO 205, in the experiment on NCI-H226 and in the experiment with TK-10 was > 100 µM (inactive) each time. Also, the GI50 in the experiment with SF-268, with OVCAR-3, with HOP-62, in the experiment with NCI-H23 and in the experiment with EKVX was > 100 µM (inactive) throughout.

In the case of `COc1ccc(OC(C(=O)O)C(C)C)c2c1CCCC2=O` (stereo unspecified), the GI50 in the experiment on 786-0, in the experiment on UO-31, in the experiment on UACC-62, in the experiment with CCRF-CEM, with OVCAR-8 and in the experiment with LOX IMVI was > 100 µM (inactive) each time. In addition, the GI50 in the experiment with Malme-3M, in the experiment on ACHN, with M14, with COLO 205, in the experiment with TK-10 and in the experiment with SF-268 was > 100 µM (inactive) in each case. In addition, the GI50 in the experiment with OVCAR-3, with HOP-62, in the experiment on NCI-H23 and in the experiment on EKVX was > 100 µM (inactive) throughout.

On to `COc1ccc(/C=N/n2cnc3c(c2=O)S/C(=C2/SC(=S)N(c4ccc(C)cc4)C2=O)N3c2ccccc2)cc1`, for which the GI50 with UO-31 is > 100 µM (inactive); with UACC-62 it was 17.4 µM (inactive); in the experiment with CCRF-CEM, 43.6 µM (inactive); in the experiment with OVCAR-8 it was 70.5 µM (inactive); with LOX IMVI it was > 100 µM (inactive); in the experiment on Malme-3M, 19.7 µM (inactive). For the same molecule, the GI50 in the experiment on HOP-92 was 25.8 µM (inactive); in the experiment on ACHN it was 49.1 µM (inactive); in the experiment on M14, 19.5 µM (inactive); with COLO 205, > 100 µM (inactive); with NCI-H226, > 100 µM (inactive); in the experiment on TK-10, > 100 µM (inactive). Also, the GI50 in the experiment with SF-268 was 29.4 µM (inactive); in the experiment on OVCAR-3 it was 29.9 µM (inactive); in the experiment on HOP-62, 22.8 µM (inactive); with EKVX, > 100 µM (inactive).

Take `COC(=O)c1s/c(=N\C(=S)N(C)C)n(-c2ccc(Cl)cc2)c1C(=O)OC`: the GI50 in the experiment with 786-0 is > 100 µM (inactive); with UO-31, > 100 µM (inactive); in the experiment on UACC-62 it was > 10 µM (inactive); in the experiment on CCRF-CEM it was > 100 µM (inactive); in the experiment with OVCAR-8, > 100 µM (inactive); with LOX IMVI it was > 100 µM (inactive). Moreover, the GI50 in the experiment on Malme-3M, in the experiment on ACHN, in the experiment on M14, in the experiment on COLO 205, in the experiment with NCI-H226 and in the experiment on TK-10 was > 100 µM (inactive) throughout. In addition, the GI50 is > 100 µM (inactive) in the experiment with SF-268; > 100 µM (inactive) in the experiment on OVCAR-3; 70.3 µM (inactive) with HOP-62; > 100 µM (inactive) in the experiment on NCI-H23; > 100 µM (inactive) in the experiment with EKVX.

Consider `COc1ccc2c(c1)[n+]([O-])c(-c1c(Cl)cccc1Cl)c(N)[n+]2[O-]`, for which the GI50 in the experiment with 786-0 was 56.5 µM (inactive); in the experiment on UO-31, 85.3 µM (inactive); in the experiment on UACC-62, 37.7 µM (inactive); in the experiment on CCRF-CEM, 57.7 µM (inactive); with OVCAR-8 it was 61.7 µM (inactive); with LOX IMVI it was 66.1 µM (inactive). For the same molecule, the GI50 is 21.3 µM (inactive) with Malme-3M; 45.6 µM (inactive) in the experiment with HOP-92; 62.4 µM (inactive) in the experiment on ACHN; 31.5 µM (inactive) in the experiment with M14; 30.2 µM (inactive) with COLO 205; 79.6 µM (inactive) in the experiment on NCI-H226. Further, the GI50 in the experiment with TK-10 is > 100 µM (inactive); in the experiment on SF-268 it was 40.6 µM (inactive); in the experiment on OVCAR-3, 38.9 µM (inactive); with NCI-H23, 25.1 µM (inactive); in the experiment on EKVX, 61.5 µM (inactive).

In the case of `CC1=NOC(=O)C1/N=N/c1ccc(Br)c(C)c1` (stereo unspecified), the GI50 with 786-0 was 20 µM (inactive); in the experiment with UACC-62 it was 19.3 µM (inactive); in the experiment on CCRF-CEM, 11.8 µM (inactive); in the experiment with OVCAR-8 it was 17.9 µM (inactive); in the experiment on Malme-3M, 18.7 µM (inactive); in the experiment on HOP-92, 17.3 µM (inactive). The GI50 with ACHN was 17.8 µM (inactive); with M14, 20.5 µM (inactive); in the experiment with COLO 205, 25 µM (inactive); with NCI-H226, 25.5 µM (inactive); in the experiment with TK-10, 18.6 µM (inactive); in the experiment on SF-268, 22.1 µM (inactive). Besides, the GI50 was 17.2 µM (inactive) in the experiment on OVCAR-3, 22.3 µM (inactive) in the experiment on HOP-62, 21.6 µM (inactive) in the experiment with NCI-H23 and 18 µM (inactive) in the experiment on EKVX.

As for `COC(=O)c1nc(N)nc(C(=O)OC)c1C(=O)c1ccccc1`, the GI50 with 786-0, in the experiment on UO-31, with UACC-62, with CCRF-CEM, in the experiment with OVCAR-8 and in the experiment with LOX IMVI was > 100 µM (inactive) in each case. Also, the GI50 with Malme-3M is > 100 µM (inactive); in the experiment with HOP-92, 96.8 µM (inactive); in the experiment on ACHN it was > 100 µM (inactive); with M14, > 100 µM (inactive); with TK-10, > 100 µM (inactive); in the experiment with SF-268 it was > 100 µM (inactive). The GI50 with OVCAR-3, with NCI-H23 and in the experiment on EKVX was > 100 µM (inactive) each time.

Consider `CCC1C(=O)OCc2c1cc1n(c2=O)C(CC)c2c-1nc1ccccc1c2Cl` (stereo unspecified), for which the GI50 was 15.7 µM (inactive) in the experiment with 786-0; 23.9 µM (inactive) in the experiment on UO-31; 18.2 µM (inactive) in the experiment with UACC-62; 11.6 µM (inactive) with CCRF-CEM; 33.1 µM (inactive) in the experiment on LOX IMVI; 38.8 µM (inactive) in the experiment with Malme-3M. For the same molecule, the GI50 in the experiment with HOP-92 was 26.9 µM (inactive); with ACHN it was 27.4 µM (inactive); in the experiment with M14, 33.7 µM (inactive); in the experiment on COLO 205 it was 16.2 µM (inactive); in the experiment on NCI-H226, 29.1 µM (inactive); in the experiment with TK-10 it was 40.9 µM (inactive). Besides, the GI50 in the experiment on SF-268 was 23.9 µM (inactive); in the experiment on OVCAR-3 it was 20.3 µM (inactive); in the experiment with HOP-62, 20.7 µM (inactive); with NCI-H23 it was 25.6 µM (inactive); in the experiment with EKVX it was 25.2 µM (inactive).

Regarding `CC1=C2O[B-](c3ccccc3)(c3ccccc3)[O+]=C2C=CN1`, the GI50 is 46.2 µM (inactive) with 786-0; 4.46 µM (inactive) with UO-31; 21.2 µM (inactive) in the experiment with UACC-62; 34.8 µM (inactive) in the experiment on CCRF-CEM; 41.2 µM (inactive) in the experiment on OVCAR-8; 52.4 µM (inactive) with LOX IMVI. The GI50 is 34.6 µM (inactive) in the experiment with Malme-3M; 22.1 µM (inactive) in the experiment with HOP-92; 27.9 µM (inactive) in the experiment on ACHN; 40 µM (inactive) in the experiment with M14; 45.1 µM (inactive) in the experiment with COLO 205; 22.6 µM (inactive) with TK-10. Moreover, the GI50 in the experiment with OVCAR-3 is 2 µM (inactive); in the experiment with HOP-62, 25.9 µM (inactive); in the experiment on NCI-H23, 36.6 µM (inactive); in the experiment on EKVX, 28.8 µM (inactive).

`CN(Cc1ccccc1)C(=NC#N)N(C)Cc1ccccc1`: the GI50 in the experiment on 786-0, with UO-31, in the experiment with UACC-62, in the experiment on OVCAR-8, in the experiment on LOX IMVI and with HOP-92 was > 100 µM (inactive) throughout. Besides, the GI50 in the experiment on ACHN, in the experiment with M14, in the experiment with COLO 205, in the experiment with TK-10, in the experiment with SF-268 and in the experiment with OVCAR-3 was > 100 µM (inactive) in each case. Moreover, the GI50 in the experiment on HOP-62, with NCI-H23 and in the experiment on EKVX was > 100 µM (inactive) throughout.

Take `C[N+](C)(C)C.FC(F)(F)C1(C(F)(F)F)O[SiH-]2(OC(C(F)(F)F)(C(F)(F)F)c3ccccc32)c2ccccc21`: the GI50 with 786-0 is 16.7 µM (inactive); with UO-31, 14.6 µM (inactive); in the experiment with OVCAR-8, 15.3 µM (inactive); in the experiment with Malme-3M it was 19.5 µM (inactive); in the experiment on ACHN, 22.8 µM (inactive); with M14, 10 µM (inactive). Moreover, the GI50 with COLO 205 was 20 µM (inactive); with NCI-H226 it was 4.86 µM (inactive); in the experiment on TK-10, 16.9 µM (inactive); in the experiment on OVCAR-3, 18.9 µM (inactive); in the experiment on NCI-H23, 11 µM (inactive); in the experiment on EKVX, 14.2 µM (inactive).
